Assay results reported in ChEMBL document CHEMBL1697731, “Cheminformatics analysis of assertions mined from literature that describe drug-induced liver injury in different species” (Chem Res Toxicol, 2010).

Columns and labels:
[1] = system: Hepatotoxicity; test: Literature-mined compound from Fourches et al multi-species drug-induced liver injury (DILI) dataset, effect in humans; details: human
[2] = system: Hepatotoxicity; test: Literature-mined compound from Fourches et al multi-species drug-induced liver injury (DILI) dataset, effect in rodents; details: rodentia
[3] = system: Hepatotoxicity; test: Literature-mined compound from Fourches et al multi-species drug-induced liver injury (DILI) dataset, effect in non-rodents

Structure (SMILES)	Hepatotoxicity [1]	Hepatotoxicity [2]	Hepatotoxicity [3]	Hepatotoxicity ([1]; Liver)	Hepatotoxicity ([2]; Liver)	Hepatotoxicity ([3]; Liver)
NC[C@H]1O[C@H](O[C@H]2[C@H](O)[C@@H](O[C@H]3O[C@H](CO)[C@@H](O)[C@H](N)[C@H]3O)[C@H](N)C[C@@H]2N)[C@H](N)C[C@@H]1O [TOBRAMYCIN]	no drug-induced liver injury reported	drug-induced liver injury reported	no drug-induced liver injury reported	–	–	–
CC(=O)Oc1c(C)c(C)c2c(c1C)CCC(C)(CCC[C@H](C)CCC[C@H](C)CCCC(C)C)O2 (some centres not stated) [TOCOPHEROL ACETATE]	no drug-induced liver injury reported	drug-induced liver injury reported	no drug-induced liver injury reported	–	–	–
Cc1ccc(S(=O)(=O)NC(=O)NN2CCCCCC2)cc1 [TOLAZAMIDE]	drug-induced liver injury reported	drug-induced liver injury reported	no drug-induced liver injury reported	–	–	–
Cc1ccc(C(=O)c2cc(O)c(O)c([N+](=O)[O-])c2)cc1 [TOLCAPONE]	–	–	–	drug-induced liver injury reported	drug-induced liver injury reported	no drug-induced liver injury reported
Cc1ccc(C(=O)C(C)CN2CCCCC2)cc1 (configuration not stated) [TOLPERISONE]	drug-induced liver injury reported	no drug-induced liver injury reported	no drug-induced liver injury reported	–	–	–
Cc1ccc(O)c([C@H](CCN(C(C)C)C(C)C)c2ccccc2)c1 [TOLTERODINE]	drug-induced liver injury reported	no drug-induced liver injury reported	no drug-induced liver injury reported	–	–	–
CC1(C)O[C@@H]2[C@@H](CO[C@@]3(COS(N)(=O)=O)OC(C)(C)O[C@@H]23)O1 [TOPIRAMATE]	drug-induced liver injury reported	no drug-induced liver injury reported	no drug-induced liver injury reported	–	–	–
CN(C)CCOc1ccc(/C(=C(/CCCl)c2ccccc2)c2ccccc2)cc1 [TOREMIFENE]	drug-induced liver injury reported	drug-induced liver injury reported	no drug-induced liver injury reported	–	–	–
COc1cc2c(cc1O)CCN[C@]21CS[C@@H]2c3c(OC(C)=O)c(C)c4c(c3[C@H](COC1=O)N1[C@@H]2[C@H]2c3c(cc(C)c(OC)c3O)C[C@@H]([C@@H]1O)N2C)OCO4 [TRABECTEDIN]	drug-induced liver injury reported	drug-induced liver injury reported	no drug-induced liver injury reported	–	–	–
COc1cccc(C2(O)CCCCC2CN(C)C)c1 (configuration not stated) [TRAMADOL]	drug-induced liver injury reported	drug-induced liver injury reported	no drug-induced liver injury reported	–	–	–
CCOC(=O)[C@H](CCc1ccccc1)N[C@@H](C)C(=O)N1[C@H](C(=O)O)C[C@H]2CCCC[C@@H]21 [TRANDOLAPRIL]	drug-induced liver injury reported	no drug-induced liver injury reported	no drug-induced liver injury reported	–	–	–
N[C@@H]1C[C@H]1c1ccccc1.N[C@H]1C[C@@H]1c1ccccc1 [TRANYLCYPROMINE]	–	–	–	drug-induced liver injury reported	drug-induced liver injury reported	drug-induced liver injury reported
O=c1n(CCCN2CCN(c3cccc(Cl)c3)CC2)nc2ccccn12 [TRAZODONE]	drug-induced liver injury reported	no drug-induced liver injury reported	no drug-induced liver injury reported	–	–	–
CC1=C(/C=C/C(C)=C/C=C/C(C)=C/C(=O)O)C(C)(C)CCC1 [TRETINOIN]	drug-induced liver injury reported	drug-induced liver injury reported	no drug-induced liver injury reported	–	–	–
